Series [1] in a line: Metabolic stability in mouse liver microsomes. The format is in vitro ADME. Conditions: polar carboxamides on the paroxetine template. For orientation: Liver microsomes are vesicles of endoplasmic reticulum, rich in cytochrome P450 enzymes.
In series [2] the test system is mouse cardiomyocytes. Type of series: cell-based.
In series [3] the target is bovine GRK5 (Bos taurus, UniProt P43249). In words: GRK5 kinase inhibition. Conditions: relative to paroxetine.
Series [4] deals with mouse PKA catalytic subunits (Mus musculus, UniProt P05132). The series can be described thus: PKA inhibition, ADP-Glo Kinase Assay. (In ADP-Glo the light output rises with the ADP produced.)
A short description of series [5]: Abbreviated pharmacokinetic study in mice after IP administration. Conditions: for concentration at 30 min / concentration at 2 h / concentration at 4 h / concentration at 7 h: female, CD-1, mouse, plasma, ip, 10 mg/kg.
For series [6], the system named is GRK2. Conditions: read-out: GRK2 IC50; Takeda compounds; cited from earlier work.
Series [7] has as its system mouse cardiomyocytes. The note with it: cited from earlier work.

The structures appear in SMILES notation. pIC50: −log10 of the molar value. Counter-ions that a name gives are not always drawn.

Here are results for 5 molecules from paper PMC5641445 (Journal of medicinal chemistry, 2017).

By pIC50 is commonly meant the negative decadic logarithm of the IC50, by convention in mol/L.

Chain of bovine GRK5 (P43249 whole entry): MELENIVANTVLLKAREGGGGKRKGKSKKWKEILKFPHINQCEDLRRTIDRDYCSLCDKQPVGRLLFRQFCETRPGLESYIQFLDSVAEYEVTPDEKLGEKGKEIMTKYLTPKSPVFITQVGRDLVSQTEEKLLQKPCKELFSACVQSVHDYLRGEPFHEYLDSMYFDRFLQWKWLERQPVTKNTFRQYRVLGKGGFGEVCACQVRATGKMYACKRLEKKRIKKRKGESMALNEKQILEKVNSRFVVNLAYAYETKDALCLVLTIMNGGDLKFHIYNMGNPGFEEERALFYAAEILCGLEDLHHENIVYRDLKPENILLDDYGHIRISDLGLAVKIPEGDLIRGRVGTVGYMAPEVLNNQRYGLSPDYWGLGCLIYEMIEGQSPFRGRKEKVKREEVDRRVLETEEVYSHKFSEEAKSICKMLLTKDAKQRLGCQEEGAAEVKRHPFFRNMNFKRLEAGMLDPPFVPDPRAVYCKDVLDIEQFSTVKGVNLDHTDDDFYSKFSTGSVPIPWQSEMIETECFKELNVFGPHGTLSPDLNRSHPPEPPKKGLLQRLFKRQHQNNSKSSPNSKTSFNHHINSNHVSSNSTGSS

Take `O=C(NCc1ccccn1)c1cc([C@@H]2CCNC[C@H]2COc2ccc3c(c2)OCO3)ccc1F` [14ak, 5-((3S,4R)-3-((benzo[d][1,3]dioxol-5-yloxy)methyl)piperidin-4-yl)-2-fluoro-N-(pyridin-2-ylmethyl)benzamide hydrochloride]: the “metabolic stability in MLM, in words” value in series [1] is recorded as “substantial metabolic instability”. In addition, the “increase in contractility, in words” value in series [2] (at 0.5 μM or 1 μM) is “did not show a significant increase in contractility”. For the same molecule, the “increase in GRK5 potency” value in series [3] amounted to 5 fold. Besides, the pIC50 in series [4] was less than 4.00.

For `O=C(NCc1ccn[nH]1)c1cc([C@@H]2CCNC[C@H]2COc2ccc3c(c2)OCO3)ccc1F` [14as, N-((1H-pyrazol-5-yl)methyl)-5-((3S,4R)-3-((benzo[d][1,3]dioxol-5-yloxy)methyl)piperidin-4-yl)-2-fluorobenzamide], in series [5], the concentration at 30 min stood at 2710 nM, the concentration at 2 h is 1440 nM, the concentration at 4 h is 270 nM and the concentration at 7 h amounted to 43 nM. Further, the “time with plasma concentration higher than GRK2 IC50 ([…] nM)” value in series [5] (mice, single IP administration 10 mg/kg) is reported as “over seven”. Further, the “metabolic stability in MLM, in words” value in series [1] was “substantial metabolic instability”. In addition, in series [2], the “improvement in contractility efficacy over compound 4” value is reported as 5 fold. The “concentration giving improved contractility” value in series [2] (isoproterenol-stimulated) came to 100 nM. The same molecule had a pIC50 in series [4] of less than 4.00.

Consider `Cn1c(CNc2cccc(C(=O)NCc3ccccc3C(F)(F)F)c2)nnc1-c1ccncc1` [compound 2, reference compound], for which, in series [5] (CD-1 mice, IP 10 mg/kg, estimated from four time points), the half-life in vivo entry is given as “too low to quantify”. In series [5], the concentration at 30 min came to 1830 nM, the concentration at 2 h was 32 nM, the concentration at 4 h was 5 nM and the concentration at 7 h was determined as 6 nM. Moreover, the pIC50 in series [6] was 7.52.

`CC1=C(C(=O)Nc2ccc3[nH]ncc3c2)C(c2ccc(F)cc2)NC(=O)N1` (stereo not drawn) [compound 3]: the “minimum dose needed to produce a significant contractility response” value in series [7] is 1 µM.

`COc1cccc(OC)c1CNC(=O)c1cc(C2NC(=O)NC(C)=C2C(=O)Nc2ccc3[nH]ncc3c2)ccc1F` (stereo not drawn) [compound 4]: in series [7], the “lower concentration than paroxetine enhancing myocardial contractility” value is 20 fold.
